Reference: the OPERA property sets (Mansouri et al. 2018)

Settings: not given
In the case of `FC1(F)C(F)(F)C(F)(Cl)C1(F)Cl` (configuration not stated), the boiling point is reported as 59.5 °C, the log10 vapour pressure (mmHg) is reported as 2.36 and the melting point is reported as -24.2 °C.
Compound `C#CC(C)(CC)OC(N)=O` (configuration not stated) has a melting point of 55.8 °C.
`O=S(=O)(Cl)C(Cl)(Cl)Cl` showed a boiling point of 170 °C and a melting point of 140 °C.
`Cc1ccc2ccc(C)cc2c1` showed a boiling point of 265 °C, a log10 vapour pressure (mmHg) of -2.25 and a melting point of 97 °C.
With `O=C(O)c1ccccc1O` the log10 Koa was 7.44, the log10 vapour pressure (mmHg) was -4.09 and the melting point was 158 °C. For the same compound, the ready biodegradability was “readily biodegradable”.
For `CCCCCCCCCCCCCCCCC(=O)O`, the boiling point was 364 °C, the log10 vapour pressure (mmHg) was -7.21 and the melting point was 61.3 °C.
`C1CC12CC2` showed a boiling point of 39 °C, a log10 vapour pressure (mmHg) of 2.66 and a melting point of -135 °C.
Compound `COc1c(Br)cc(Br)cc1Br` has a boiling point of 298 °C and a melting point of 88 °C.
`BrCCCBr` gave a boiling point of 167 °C, a log10 Henry constant (atm·m³/mol) of -3.05 and a log10 vapour pressure (mmHg) of 0.134. For the same compound, the melting point was -34.2 °C and the ready biodegradability was “not readily biodegradable”.
`CC(=CC(=O)c1ccccc1)c1ccccc1` gave a boiling point of 342 °C.
`OC(CCl)CCl` gave a boiling point of 176 °C, a log10 vapour pressure (mmHg) of -0.125 and a melting point of -4 °C. For the same compound, the ready biodegradability was “readily biodegradable”.
Compound `Cc1ccc(C(=O)COc2c(C(=O)c3ccc(Cl)c(C)c3Cl)c(C)nn2C)cc1` has a log10 vapour pressure (mmHg) of -7.01 and a melting point of 133 °C.
With `CCCCCc1cc(O)c2c(c1)OC(C)(C)c1ccc(C)cc1-2` the melting point was 77 °C and the ready biodegradability was “readily biodegradable”.
Compound `Nc1ccc(O)c([N+](=O)[O-])c1` has a melting point of 126 °C.
Compound `CC(C)COC(=O)c1ccccc1O` has a boiling point of 261 °C and a melting point of 5.9 °C.
`CC(C)CN=C=O` showed a boiling point of 106 °C.
Compound `CCC(N)C(O)c1ccccc1` (configuration not stated) has a melting point of 79.5 °C.
Work on `CCOS(=O)(=O)c1ccc(C)cc1` yielded a melting point of 34.5 °C.
For `CS(=O)(=O)c1cc(C(F)(F)F)ccc1C(=O)c1cnoc1C1CC1`, the log10 Henry constant (atm·m³/mol) was -9.73, the log10 vapour pressure (mmHg) was -8.12 and the melting point was 140 °C.
`C=C(C)OC` showed a boiling point of 35 °C and a log10 vapour pressure (mmHg) of 2.71.
With `O=C1CCC(=O)N1Cl` the boiling point was 216 °C and the melting point was 150 °C.
For `C[C@@H](O)C(C)(C)O`, the boiling point was 175 °C.
`C[C@@](Cc1ccc(O)c(O)c1)(NN)C(=O)O` showed a melting point of 208 °C.
With `C[C@]12CC[C@H]3[C@@H](CCC4=CC(=O)C=C[C@@]43C)[C@@H]1CC[C@H]2O` the melting point was 165 °C.
Work on `C[C@@H]1O[C@@H](O[C@H]2CC[C@]3(C=O)[C@H]4CC[C@]5(C)[C@@H](C6=CC(=O)OC6)CC[C@]5(O)[C@@H]4CC[C@]3(O)C2)[C@H](O)[C@H](O)[C@H]1O` yielded a melting point of 238 °C.
Compound `COC(=O)c1cccc(Cl)c1` has a melting point of 21 °C.
With `N[C@@H](CC(=O)O)C(=O)O` (racemic) the melting point was 272 °C.
With `CCCCC1C(=O)N(c2ccccc2)N(c2ccc(O)cc2)C1=O` (configuration not stated) the melting point was 96 °C.
In the case of `CCC(Oc1ccc(C(C)(C)CC)cc1C(C)(C)CC)C(=O)Nc1ccc(NC(=O)C(F)(F)C(F)(F)C(F)(F)F)c(O)c1` (configuration not stated), the ready biodegradability is reported as “not readily biodegradable”.
`Cc1cnccn1` gave a boiling point of 137 °C, a log10 Henry constant (atm·m³/mol) of -5.66 and a log10 vapour pressure (mmHg) of 0.906. The melting point was -29 °C.
For `CC(C)(c1ccc(O)cc1)c1ccc(O)cc1`, the melting point was 153 °C and the ready biodegradability was “not readily biodegradable”.
In the case of `COc1cc(-c2ccc(N)c(OC)c2)ccc1N`, the boiling point is reported as 356 °C, the melting point is reported as 137 °C and the ready biodegradability is reported as “not readily biodegradable”.
For `CC1=CCCC1=O`, the boiling point was 157 °C.
For `CCOC(=O)CI`, the boiling point was 179 °C and the log10 vapour pressure (mmHg) was -0.195.
In the case of `Clc1c(Cl)c(Cl)c2c(oc3ccccc32)c1Cl`, the melting point is reported as 169 °C.
In the case of `O=c1n(CC2CO2)c(=O)n(CC2CO2)c(=O)n1CC1CO1` (configuration not stated), the ready biodegradability is reported as “not readily biodegradable”.
With `FC(F)(F)C(F)(F)C(F)(F)C(F)(C(F)(F)F)C(F)(F)F` the boiling point was 57.6 °C and the melting point was -119 °C.
In the case of `CC(C)(C)C(=O)C(Oc1ccc(Cl)cc1)n1cncn1` (configuration not stated), the log10 Koc (L/kg) is reported as 2.71, the log10 vapour pressure (mmHg) is reported as -7.82 and the melting point is reported as 82 °C.
With `CC1CC=CC1` the boiling point was 65.7 °C and the melting point was -161 °C.
`Cc1ccc(O)c(C(=O)O)c1` showed a melting point of 151 °C.
With `O=C1OC(=O)C2C1C1(Cl)C(Cl)=C(Cl)C2(Cl)C1(Cl)Cl` (configuration not stated) the melting point was 233 °C.
In the case of `CCOC(=O)c1ccc(OCC)cc1`, the boiling point is reported as 275 °C.
Compound `CCCCCC(N)=O` has a boiling point of 255 °C and a melting point of 101 °C.
Compound `C#CCNC` has a boiling point of 83 °C.
`NCCO.O=C(Nc1ccc([N+](=O)[O-])cc1Cl)c1cc(Cl)ccc1O` showed a melting point of 216 °C.
Work on `CCCCCCCCCCCCCCCC` yielded a boiling point of 287 °C, a log10 biodegradation half-life (days) of 1.23 and a log10 vapour pressure (mmHg) of -2.84. For the same compound, the melting point was 18.1 °C and the ready biodegradability was “not readily biodegradable”.
In the case of `CC(=O)c1cccc(C)c1`, the boiling point is reported as 220 °C.
Compound `C=C1N(C)c2ccccc2C1(C)C` has a boiling point of 248 °C.
`CNC(=O)/C=C(\C)OP(=O)(OC)OC` showed a log10 Koc (L/kg) of 0, a log10 vapour pressure (mmHg) of -5.66 and a melting point of 55 °C.
With `CC(C)=NO` the boiling point was 136 °C and the melting point was 61 °C.
In the case of `FC(F)(Br)C(F)(Cl)Br` (configuration not stated), the boiling point is reported as 93 °C.
For `O=[N+]([O-])c1cccc2ccccc12`, the boiling point was 304 °C, the log10 Henry constant (atm·m³/mol) was -5.75 and the log10 vapour pressure (mmHg) was -3.32. It also gave a melting point of 61 °C.
Work on `CCCC(O)CO` (configuration not stated) yielded a boiling point of 206 °C and a melting point of 104 °C.

Same assay, conditions: fish
With `O=C(c1ccccc1)c1ccccc1` the log10 BCF was 1.08.
Work on `CC(C)(c1ccc(O)cc1)c1ccc(O)cc1` yielded a log10 BCF of 1.64 and a log10 biotransformation half-life (days) of 0.27.
`CCCCCCCCCCCCCCCC` gave a log10 BCF of 3.7.
